# Data as given in patent publication US20230172933A1, “USE OF A COMPOUND OR COMPOSITION COMPRISING AN INHIBITOR OF NLRP1 INFLAMMASOME ACTIVATION FOR THE TREATMENT OF HUMAN AIRWAY INFLAMMATION” (Nanyang Technological University, priority 2020, published 2023).
# Entries after “also recorded” stand apart in the source; their conditions may differ.
# Tests used:
# NLRP1 inflammasome = experiment: Talabostat-induced IL-1β secretion in N/TERT keratinocytes; assay type: cell-based, human; settings: ELISA of conditioned media
# NLRP1 = NLRP1 self-oligomerization (BN-PAGE) and cleavage fragment (SDS-PAGE/Western blot) in 293T-NLRP1-FLAG cells transfected with HRV14-3Cpro; assay type: cell-based, human
# [1] = tested on: endogenous NLRP1 inflammasome; experiment: Endogenous NLRP1 inflammasome in doxycycline-induced Tet-ON HRV14-3Cpro N/TERT keratinocytes; assay type: cell-based, human
# [2] = tested on: NLRP1 inflammasome in HRV16-infected NHBEs; experiment: HRV16-induced IL-1β and IL-18 secretion in NHBEs (ELISA); assay type: cell-based, human; settings: HRV16 MOI=5, 33° C., 48 hours, pre-treated: MLN4924 1 μM, Bortezomib 1 μM, MCC950 5 μM, Rupintrivir 10 nM
# Method: (§1) (A) Expression levels of NLRP1 vs. NLRP3 (RNAseq FKPM) in NHBEs. n=21, independent cultures of pooled NHBEs from healthy donors. (B) Expression of NLRP1 vs. NLRP3 in healthy human nasal biopsy. Puncta: positive staining by RNAscope. Nuclei staining: hematoxylin. (C) Overview of cytokine profiling of by HRV16-infected and Talabostat-treated NHBEs. (D) Cells were inoculated with HRV16 at MOI=5 and cultured at 33° C. for 48 hours. Luminex array was performed on conditioned media after removing cell debris. n=3 independent infections and treatment. Cytokines/chemokines that were induced at least 5 fold (p<0.05, Student's t test, lognormal values) are represented by square boxes. […] NHBEs were pretreated with MCC950 (5 μM) or Rupintrivir (10 nM) before HRV16 inoculation or Talabostat (2 μM) treatment. […] (G) Overview of apical HRV infection 3D human bronchial epithelial cultures. (H) Alcian blue (AB)/periodic acid-Schiff (PAS) staining of HRV16-infected (MOI=3) and Talabostat (2 μM)-treated 3D human bronchial epithelial cultures. (1) IL-18 level in apical or basal media 48 hours post-infection or Talabostat treatment. **P<0.01, ***P<0.001, ****P<0.0001 (Two-way ANOVA). n=3 independent infected/treated cultures. (J) Secretion of cleaved IL-1β and IL-18 and ASC oligomerization in HRV16-infected primary NHBEs. Cells were inoculated with HRV16 (MOI=5) or treated with Talabostat (2 μM) for 48 hours at 33° C.
# (§2) (A) Endogenous NLRP1, ASC and caspase-1 are indispensable for HRV16-induced IL-18 secretion in NHBEs. Cas9-control, NLRP1, ASC and CASP1 KO NHBEs were infected with HRV16 as before. Conditioned media were harvested 48 hours post-infection. (B) NLRP1 is genetically required for HRV16-induced IL-18 cleavage and ASC oligomerization. Cas9 control, NLRP1 and ASC KO NHBEs were infected with HRV16 as before. Cleaved IL-18 are marked with arrows. (C) Mutating the NLRP1 cleavage site abrogates HRV16-triggered IL-18 secretion in NHBEs. NLRP1 KO NHBEs were rescued with lentiviral constructs expressing FLAG-tagged NLRP1^WT or NLRP1^Q130A, which carried silent mutations at the PAM sites. The rescued cells were infected with HRV16 or treated with Talabostat. Conditioned media was analyzed by IL-18 ELISA. **P<0.01, ***P<0.001, n=3 replicates from one of two independent infections. (D) Q130A abrogates NLRP1 cleavage, IL-18 maturation and ASC oligomerization in NHBEs. NLRP1 KO or NLRP1^WT- or NLRP1^Q130A-rescued cells were infected with HRV16 or treated with Talabostat. Cells were harvested 48 hours post infection. Arrow: NLRP1 cleavage product in lane 8 HRV16. *: Non-specific NLRP1 degradation product that occurs right below the a.a. 131-1213 cleavage fragment. See also FIG. 3E, 5E, 5D. (E) MLN4924 and Bortezomib blocks HRV16-induced IL-18 secretion. NHBEs were pre-treated with MLN4924 (1 μM) or Bortezomib (1 μM) before HRV16 infection or Talabostat treatment. IL-18 levels were measured with ELISA. ****, p<0.0001 (Two-way ANOVA), n=3 independent infections/treatment. (F) MLN4924 and Bortezomib blocks HRV16-induced IL-1β secretion. […] Lysates from HRV16-infected NHBEs in FIGS. 9E-F were analyzed by Western blot 48 hours post HRV16 inoculation.
# (§3) The following antibodies were used in this study: c-Myc (Santa Cruz Biotechnology #sc-40), HA tag (Santa Cruz Biotechnology, #sc-805), GAPDH (Santa Cruz Biotechnology, #sc-47724), ASC (Adipogen, #AL-177), CASP1 (Santa Cruz Biotechnology, #sc-622), IL1B (R&D systems, #AF-201), FLAG (SigmaAldrich, #F3165), GFP (Abcam, #ab290), NLRP1 (R&D systems, #AF6788), IL18 (Abcam ab207324) and VP2 (QED Bioscience, #18758). HRV16-3Cpro was detected by rabbit serum, a kind gift from Dr. Ann Palmenberg and Dr. James Gern (University of Wisconsin). Cytokine and chemokine measurements were carried out with human IL-1B ELISA kit (BD, #557953), human IL-18 ELISA kit (MBL Bioscience, #7620) and Immune Monitoring 65-Plex Human ProcartaPlex™ Panel (ThermoFisher EPX650-10065-901). […]
# human NLRP1 inflammasome = experiment: HRV14-3Cpro-induced ASC-GFP speck formation in 293T-ASC-GFP-NLRP1-FLAG reporter cells; assay type: cell-based; settings: 293T-ASC-GFP-NLRP1-FLAG cells transfected with HRV14-3Cpro; MLN4924 1 μM, MG132 2.5 μM, Bortezomib 0.5 μM, phenylalanine 1 mM; 24 hours
# [3] = tested on: NLRP1 inflammasome in Talabostat-treated NHBEs; experiment: Talabostat-induced IL-1β and IL-18 secretion in NHBEs (ELISA); assay type: cell-based, human; settings: Talabostat 2 μM, pre-treated: MLN4924 1 μM, MCC950 5 μM, Rupintrivir 10 nM
# Method: as §1
# (A) Endogenous NLRP1, ASC and caspase-1 are indispensable for HRV16-induced IL-18 secretion in NHBEs. Cas9-control, NLRP1, ASC and CASP1 KO NHBEs were infected with HRV16 as before. Conditioned media were harvested 48 hours post-infection. (B) NLRP1 is genetically required for HRV16-induced IL-18 cleavage and ASC oligomerization. Cas9 control, NLRP1 and ASC KO NHBEs were infected with HRV16 as before. Cleaved IL-18 are marked with arrows. […] Conditioned media was analyzed by IL-18 ELISA. **P<0.01, ***P<0.001, n=3 replicates from one of two independent infections. […] IL-18 levels were measured with ELISA. ****, p<0.0001 (Two-way ANOVA), n=3 independent infections/treatment. […] Lysates from HRV16-infected NHBEs in FIGS. 9E-F were analyzed by Western blot 48 hours post HRV16 inoculation.
# as §3, with “Wisconsin).” for “Wisconsin). Cytokine and chemokine measurements were carried out with human IL-1B ELISA kit (BD, #557953), human IL-18 ELISA kit (MBL Bioscience, #7620) and Immune Monitoring 65-Plex Human ProcartaPlex™ Panel (ThermoFisher EPX650-10065-901).”
# HRV16 = experiment: VP2 maturation in HRV16-infected NHBEs (Western blot); assay type: cell-based, HRV-A16; settings: 48 hours post inoculation, MLN4924 1 μM
# Method: as §2, with “Arrow: NLRP1 cleavage product in lane 8 HRV16. *: Non-specific NLRP1 degradation product that occurs right below the a.a. 131-1213 cleavage fragment. See also FIG. 3E, 5E, 5D. (E) MLN4924 and Bortezomib blocks HRV16-induced IL-18 secretion. NHBEs were pre-treated with MLN4924 (1 μM) or Bortezomib (1 μM) before HRV16 infection or Talabostat treatment.” left out, “infections/treatment.” for “infections/treatment. (F) MLN4924 and Bortezomib blocks HRV16-induced IL-1β secretion.”, “inoculation. […]” for “inoculation.”
# N/TERT cells = experiment: Mode of cell death of N/TERT cells by Annexin V and PI inclusion; assay type: cell-based, human; settings: Talabostat-treated N/TERT cells; marked by PI inclusion
# Method: (A) Expression of Myc-tagged viral proteases in 293T-ASC-GFP-NLRP1-FLAG cells. Two exposure times were shown. Note that Myc-HRV16-3Cpro was lowly expressed but could activate ASC-GFP specks. (B) Representative wide-field fluorescent images of ASC-GFP specks, NLRP1-HA and Myc-tagged proteases. 293T-ASC-GFP cells were co-transfected with NLRP1-HA and Myc-tagged gZiPro, HRV14-3Cpro or HRV14-3Cpro^C146A and fixed 24 hours post transfection. (C) Validation of ASC KO in N/TERT cells. ASC KO #2 was chosen for further experiments. (E) N/TERT KO cells were transfected with the indicated 3Cpro variants and harvested 24 hours post transfection. Conditioned media was analyzed by IL-1β ELISA. **P<0.01 (Two-way ANOVA). n=3 independent transfections. (F) Modes of cell death of Talabostat-treated, or doxycycline-induced Tet-ON HRV14-3Cpro N/TERT cells assayed […] and PI inclusion. Data are representative of one of two independent experiments.
# This provides a robust cellular system to determine if 3Cpros can activate the endogenous NLRP1 inflammasome. […] Live-cell imaging of human keratinocytes expressing GFP-tagged ASC further corroborated that HRV14-3Cpro could induce ASC-GFP speck formation (FIG. 1F). […]
# human NLRP1 = experiment: ASC-GFP speck formation in 293T-ASC-GFP-NLRP1-FLAG cells after Talabostat treatment; assay type: cell-based; settings: Talabostat 2 μM, 24 hrs, compared to vector-transfected cells
# [4] = tested on: 3D human bronchial epithelial cultures; experiment: Talabostat treatment of 3D human bronchial epithelial cultures; assay type: cell-based; settings: Talabostat 2 μM
# Method: as §1, with “Cells were inoculated with HRV16 (MOI=5) or treated with Talabostat (2 μM) for 48 hours at 33° C.” left out
# NHBEs = experiment: Cytokine response of Talabostat-treated NHBEs (Luminex array, ELISA); assay type: cell-based, human
# Method: (A) Expression levels of NLRP1 vs. NLRP3 (RNAseq FKPM) in NHBEs. n=21, independent cultures of pooled NHBEs from healthy donors. (B) Expression of NLRP1 vs. NLRP3 in healthy human nasal biopsy. Puncta: positive staining by RNAscope. Nuclei staining: hematoxylin. (C) Overview of cytokine profiling of by HRV16-infected and Talabostat-treated NHBEs. (D) Cells were inoculated with HRV16 at MOI=5 and cultured at 33° C. for 48 hours. Luminex array was performed on conditioned media after removing cell debris. n=3 independent infections and treatment. Cytokines/chemokines that were induced at least 5 fold (p<0.05, Student's t test, lognormal values) are represented by square boxes. […] NHBEs were pretreated with MCC950 (5 μM) or Rupintrivir (10 nM) before HRV16 inoculation or Talabostat (2 μM) treatment. […]
# as §3, with “Wisconsin).” for “Wisconsin). Cytokine and chemokine measurements were carried out with human IL-1B ELISA kit (BD, #557953), human IL-18 ELISA kit (MBL Bioscience, #7620) and Immune Monitoring 65-Plex Human ProcartaPlex™ Panel (ThermoFisher EPX650-10065-901).”
smiles,measurement,setting,value
"NS(=O)(=O)OC[C@@H]1C[C@@H](n2ccc3c(N[C@H]4CCc5ccccc54)ncnc32)C[C@@H]1O [MLN4924, ((1S,2S,4R)-4-(4-(((S)-2,3-dihydro-1H-inden-1-yl)amino)-7H-pyrrolo[2,3-d]pyrimidin-7-yl)-2-hydroxycyclopentyl)methyl sulfamate]",Talabostat-induced IL-1β secretion,NLRP1 inflammasome,much less dramatic effect
same,stabilization of the post-cleavage NLRP1 fragment (a.a. 131-1213),"NLRP1; 293T-NLRP1-FLAG cells transfected with HRV14-3Cpro, Western blot",led to the stabilization
same,HRV14-3Cpro-induced NLRP1 self-oligomerization,"NLRP1; 293T-NLRP1-FLAG cells, BN-PAGE, drugs for 24 hours, MG132 2.5 μM",similarly blocked; also recorded: inhibits
same,ASC oligomerization upon HRV14-3Cpro induction,[1]; doxycycline 24 hours,completely blocked
same,mature IL-1β secretion upon HRV14-3Cpro induction,"[1]; doxycycline 24 hours, Western blot, ELISA",completely blocked
same,endogenous 3Cpro-induced NLRP1 inflammasome and pyroptosis,[1]; doxycycline with drug for 24 hours,inhibits
same,stabilization of the post-cleavage NLRP1 fragment,[1]; fragment below detection limit in untreated cells,stabilized
same,HRV16-induced IL-1β secretion,[2],completely blocked; also recorded: blocks
same,HRV16-induced IL-18 secretion,[2],completely blocked; also recorded: blocks
same,HRV14-3Cpro-induced ASC-GFP speck formation,human NLRP1 inflammasome,blocked; also recorded: abrogate
same,Talabostat-induced IL-1β secretion,[3],only had a modest effect
same,Talabostat-induced IL-18 secretion,[3],did not affect
same,accumulation of mature capsid protein VP2 (3Cpro-dependent VP2 maturation),HRV16,did not affect; also recorded: does not affect
CC(C)[C@H](N)C(=O)N1CCC[C@H]1B(O)O [Talabostat],mode of cell death,N/TERT cells,exclusively caused lytic cell death
same,percentage of cells forming ASC-GFP specks,human NLRP1,significant increase
same,epithelium morphology (Alcian blue/PAS staining),[4],"significant disruption of the epithelium, increased mucin production and goblet cell engorgement"
same,IL-18 level in apical or basal media,[4]; 48 hours,led to IL-18 secretion in both the apical and basal media
same,IL-1β secretion,NHBEs; ELISA,significantly secreted
same,IL-18 induction (cytokine profiling),NHBEs; Luminex array on conditioned media,most highly induced cytokine
